Experimental data as given in ChEMBL document CHEMBL1201862, “PubChem BioAssay data set” (2004).
Activity calls are given as the source filed them.

What was measured:
[1] = target: Serine/threonine-protein phosphatase PP1-alpha catalytic subunit (Homo sapiens, UniProt P62136); assay: PP1 phosphatase inhibitors, dose response, biochemical, fluorescence (AID 2394)
[2] = target: T1, Replicative DNA helicase DnaB (Mycobacterium tuberculosis, UniProt P9WMR3); assay: DnaB intein splicing inhibitors, dose response, biochemical, cell-free fluorescence (AID 449749); format: functional
T1 sequence (P9WMR3 whole entry): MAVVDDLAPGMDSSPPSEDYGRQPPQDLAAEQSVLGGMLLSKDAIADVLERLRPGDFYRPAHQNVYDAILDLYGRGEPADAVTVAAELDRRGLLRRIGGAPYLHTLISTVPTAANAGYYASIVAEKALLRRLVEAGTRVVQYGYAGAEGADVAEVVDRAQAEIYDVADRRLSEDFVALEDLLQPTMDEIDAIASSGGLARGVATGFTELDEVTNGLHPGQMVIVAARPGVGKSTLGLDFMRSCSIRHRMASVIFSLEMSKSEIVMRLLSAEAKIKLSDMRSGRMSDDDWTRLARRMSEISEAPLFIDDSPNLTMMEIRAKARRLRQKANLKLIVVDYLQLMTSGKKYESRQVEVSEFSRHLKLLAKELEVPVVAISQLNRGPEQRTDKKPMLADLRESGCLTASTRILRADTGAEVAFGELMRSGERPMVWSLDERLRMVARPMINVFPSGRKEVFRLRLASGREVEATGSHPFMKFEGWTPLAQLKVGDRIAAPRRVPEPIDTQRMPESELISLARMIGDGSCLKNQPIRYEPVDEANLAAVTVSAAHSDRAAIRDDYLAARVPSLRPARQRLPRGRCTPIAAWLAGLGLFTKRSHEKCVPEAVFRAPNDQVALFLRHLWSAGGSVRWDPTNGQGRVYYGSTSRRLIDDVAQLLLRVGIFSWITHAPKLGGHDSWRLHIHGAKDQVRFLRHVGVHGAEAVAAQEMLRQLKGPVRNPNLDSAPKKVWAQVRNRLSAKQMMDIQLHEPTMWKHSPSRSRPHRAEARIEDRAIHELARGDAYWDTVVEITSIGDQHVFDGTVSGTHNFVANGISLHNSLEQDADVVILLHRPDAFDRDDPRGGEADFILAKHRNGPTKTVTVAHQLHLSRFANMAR

[3] = target: T2, Apoptotic protease-activating factor 1 (Homo sapiens, UniProt O14727); format: functional
T2 sequence (O14727 whole entry): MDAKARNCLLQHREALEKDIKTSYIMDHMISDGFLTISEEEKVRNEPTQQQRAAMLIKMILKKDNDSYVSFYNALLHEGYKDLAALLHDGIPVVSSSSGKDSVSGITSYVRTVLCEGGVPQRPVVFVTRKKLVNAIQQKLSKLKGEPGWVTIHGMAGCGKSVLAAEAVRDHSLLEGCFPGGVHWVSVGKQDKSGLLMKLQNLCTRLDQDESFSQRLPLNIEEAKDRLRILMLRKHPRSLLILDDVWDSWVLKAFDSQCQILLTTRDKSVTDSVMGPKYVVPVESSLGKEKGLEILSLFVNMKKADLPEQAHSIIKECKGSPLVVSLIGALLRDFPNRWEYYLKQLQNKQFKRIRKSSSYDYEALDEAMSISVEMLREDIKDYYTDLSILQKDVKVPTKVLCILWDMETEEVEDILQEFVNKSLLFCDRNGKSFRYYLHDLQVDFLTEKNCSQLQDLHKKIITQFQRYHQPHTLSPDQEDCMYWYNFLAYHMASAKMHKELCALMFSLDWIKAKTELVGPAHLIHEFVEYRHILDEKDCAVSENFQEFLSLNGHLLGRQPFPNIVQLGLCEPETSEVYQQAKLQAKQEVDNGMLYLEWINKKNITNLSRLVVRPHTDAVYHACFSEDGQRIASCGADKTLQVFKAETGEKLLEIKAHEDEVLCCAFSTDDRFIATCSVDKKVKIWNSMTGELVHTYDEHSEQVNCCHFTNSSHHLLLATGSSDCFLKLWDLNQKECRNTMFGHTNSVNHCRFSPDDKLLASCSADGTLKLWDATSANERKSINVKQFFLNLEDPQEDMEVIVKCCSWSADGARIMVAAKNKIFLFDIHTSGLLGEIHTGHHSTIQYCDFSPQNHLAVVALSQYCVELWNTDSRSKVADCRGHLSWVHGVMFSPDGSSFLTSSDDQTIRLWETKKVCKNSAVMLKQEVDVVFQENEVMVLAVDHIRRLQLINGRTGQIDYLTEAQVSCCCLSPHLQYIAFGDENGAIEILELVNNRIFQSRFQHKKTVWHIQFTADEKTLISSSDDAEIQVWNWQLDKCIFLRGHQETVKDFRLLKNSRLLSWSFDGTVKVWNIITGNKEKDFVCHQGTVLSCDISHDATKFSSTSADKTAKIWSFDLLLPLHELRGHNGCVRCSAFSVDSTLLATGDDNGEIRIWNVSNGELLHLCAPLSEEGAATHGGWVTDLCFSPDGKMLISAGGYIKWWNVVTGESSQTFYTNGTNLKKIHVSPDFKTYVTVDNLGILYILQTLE

[4] = target: T3, Tyrosyl-DNA phosphodiesterase 2 (Homo sapiens, UniProt O95551); assay: human TDP2 enzyme inhibitors, dose response, biochemical, epi absorbance, IC50 (AID 743297)
T3 sequence (O95551 whole entry): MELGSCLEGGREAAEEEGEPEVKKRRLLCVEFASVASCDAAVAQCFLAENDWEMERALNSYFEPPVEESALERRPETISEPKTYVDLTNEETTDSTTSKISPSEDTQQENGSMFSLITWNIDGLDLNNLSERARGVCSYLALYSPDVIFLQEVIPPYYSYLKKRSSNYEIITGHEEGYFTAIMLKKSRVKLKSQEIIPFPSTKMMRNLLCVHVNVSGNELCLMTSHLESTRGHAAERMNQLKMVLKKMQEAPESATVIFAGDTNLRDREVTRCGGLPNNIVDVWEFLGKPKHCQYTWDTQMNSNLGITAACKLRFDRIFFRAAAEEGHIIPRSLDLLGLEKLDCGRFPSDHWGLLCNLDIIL

[5] = microbe, parasite or virus in culture; format: functional; conditions: Mycobacterium tuberculosis
Protein RecA = target: T4, Protein RecA (Mycobacterium tuberculosis, UniProt P9WHJ3); assay: Fluorescence Cell-Free Homogeneous Dose Retest to Identify Inhibitors of RecA-Intein Splicing Activity. [Related pubchem assays (depositor defined):AID2097, AID2223, AID489010, AID492950]; format: functional
T4 sequence (P9WHJ3 whole entry): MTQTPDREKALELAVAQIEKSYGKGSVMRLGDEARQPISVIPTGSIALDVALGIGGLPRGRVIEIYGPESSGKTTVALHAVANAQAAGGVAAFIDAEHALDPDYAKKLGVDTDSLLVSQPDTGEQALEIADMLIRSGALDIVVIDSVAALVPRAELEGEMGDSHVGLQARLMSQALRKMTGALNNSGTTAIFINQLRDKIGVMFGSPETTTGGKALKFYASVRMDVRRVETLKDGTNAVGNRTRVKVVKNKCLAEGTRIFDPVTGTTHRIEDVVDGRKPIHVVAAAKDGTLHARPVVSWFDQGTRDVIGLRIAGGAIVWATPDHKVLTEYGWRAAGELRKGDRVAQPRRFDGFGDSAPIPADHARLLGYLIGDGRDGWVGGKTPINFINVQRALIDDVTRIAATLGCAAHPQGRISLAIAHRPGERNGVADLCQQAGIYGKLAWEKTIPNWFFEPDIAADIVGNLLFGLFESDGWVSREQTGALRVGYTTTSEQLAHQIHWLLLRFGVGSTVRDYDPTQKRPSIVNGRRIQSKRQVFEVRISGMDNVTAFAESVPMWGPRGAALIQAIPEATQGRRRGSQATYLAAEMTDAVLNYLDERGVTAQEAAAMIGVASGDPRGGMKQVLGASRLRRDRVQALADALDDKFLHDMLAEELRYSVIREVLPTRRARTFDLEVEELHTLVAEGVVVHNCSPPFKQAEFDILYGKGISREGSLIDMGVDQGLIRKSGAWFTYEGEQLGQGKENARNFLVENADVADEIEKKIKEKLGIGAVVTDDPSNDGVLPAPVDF

[6] = target: Serine/threonine-protein phosphatase (Homo sapiens, UniProt Q9BPW0); assay: PP5 phosphatase inhibitors, dose response, biochemical, fluorescence (AID 2395)
Galanin receptor type 2 = Galanin receptor type 2 (Homo sapiens, UniProt O43603); assay: Dose Response cell-based high-throughput screening assay to identify antagonists of galanin receptor 2 (GALR2). [Related pubchem assays: 828, 866 ]; format: functional
Sequence of Galanin receptor type 2 (O43603 whole entry): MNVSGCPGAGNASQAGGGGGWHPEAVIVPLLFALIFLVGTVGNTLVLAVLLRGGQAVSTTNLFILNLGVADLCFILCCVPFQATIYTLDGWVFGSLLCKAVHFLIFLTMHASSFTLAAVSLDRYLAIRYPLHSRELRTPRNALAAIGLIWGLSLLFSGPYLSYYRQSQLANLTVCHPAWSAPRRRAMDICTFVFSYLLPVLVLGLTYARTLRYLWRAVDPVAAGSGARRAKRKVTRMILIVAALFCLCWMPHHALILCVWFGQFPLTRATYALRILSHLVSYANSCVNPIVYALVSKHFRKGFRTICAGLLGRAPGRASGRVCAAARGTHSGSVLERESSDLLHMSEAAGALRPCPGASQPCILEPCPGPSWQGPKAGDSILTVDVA

[7] = target: T5, Serine/threonine-protein phosphatase (Candida dubliniensis (strain CD36 / CBS 7987 / NCPF 3949 / NRRLY-17841) (Yeast), UniProt B9W6M3); assay: calcineurin pathway inhibitors in yeast reporter, dose response, S. cerevisiae, CDRE-lacZ, luminescence, secondary (AID 2388); format: functional, cell-based;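 note: yeast reporter cells carrying a calcineurin-responsive lacZ construct stimulated with calcium chloride; luminescent beta-galactosidase reporter signal in whole cells rather than isolated phosphatase activity; potency for inhibition where a drop in reporter signal means calcineurin blockade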
T5 sequence (B9W6M3 whole entry): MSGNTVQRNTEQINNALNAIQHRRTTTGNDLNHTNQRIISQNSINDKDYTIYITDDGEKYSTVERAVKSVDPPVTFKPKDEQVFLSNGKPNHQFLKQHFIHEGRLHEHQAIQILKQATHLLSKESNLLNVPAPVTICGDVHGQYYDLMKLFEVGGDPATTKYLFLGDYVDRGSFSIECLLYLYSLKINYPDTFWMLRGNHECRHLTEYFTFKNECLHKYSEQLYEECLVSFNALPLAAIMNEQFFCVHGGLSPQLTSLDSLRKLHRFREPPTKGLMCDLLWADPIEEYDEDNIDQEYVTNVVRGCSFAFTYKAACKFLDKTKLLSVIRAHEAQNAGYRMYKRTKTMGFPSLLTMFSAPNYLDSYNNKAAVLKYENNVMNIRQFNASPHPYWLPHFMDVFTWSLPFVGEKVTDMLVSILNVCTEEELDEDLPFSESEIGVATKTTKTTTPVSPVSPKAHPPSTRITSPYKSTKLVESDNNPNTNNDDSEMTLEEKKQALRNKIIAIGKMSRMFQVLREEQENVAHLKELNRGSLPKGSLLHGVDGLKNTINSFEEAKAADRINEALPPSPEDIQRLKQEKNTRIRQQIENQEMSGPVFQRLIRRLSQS

[8] = target: ATP-dependent molecular chaperone HSP82 (Candida albicans (strain WO-1) (Yeast), UniProt C4YTQ8); assay: loss of DOC-induced GRE-beta-galactosidase reporter signal, dose response, Hsp90 inhibitor project, S. cerevisiae, luminescence (AID 2400); format: functional, cell-based;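 note: beta-galactosidase luminescence from glucocorticoid response element reporter as proxy for Hsp90 function; inhibitor potency where signal loss means Hsp90 inhibition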
INS1 = assay: beta cell apoptosis inhibitors, cytokine rescue, dose response, luminescence, retest (AID 449756); format: functional, cell-based; conditions: Rattus norvegicus;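 note: cell death triggered by IL-1 beta plus TNF-alpha plus IFN-gamma mixture; protective hits raise ATP signal compared with cytokine alone wells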
[9] = C. albicans growth with fluconazole, confirmation, fluorescence, retest (AID 2467); format: functional, cell-based
Protein Wnt-3a = Protein Wnt-3a (Mus musculus, UniProt P27467); assay: Wnt3a-driven reporter signaling inhibition, dose response, selectivity assay for Gli-SUFU antagonist project, Wnt-LIGHT cells, luminescence (AID 651570); format: functional; conditions: read-out: IC50_Mean;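 note: Wnt-LIGHT reporter cells stimulated with conditioned medium from Wnt3a-producing cells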
Sequence of Protein Wnt-3a (P27467 whole entry): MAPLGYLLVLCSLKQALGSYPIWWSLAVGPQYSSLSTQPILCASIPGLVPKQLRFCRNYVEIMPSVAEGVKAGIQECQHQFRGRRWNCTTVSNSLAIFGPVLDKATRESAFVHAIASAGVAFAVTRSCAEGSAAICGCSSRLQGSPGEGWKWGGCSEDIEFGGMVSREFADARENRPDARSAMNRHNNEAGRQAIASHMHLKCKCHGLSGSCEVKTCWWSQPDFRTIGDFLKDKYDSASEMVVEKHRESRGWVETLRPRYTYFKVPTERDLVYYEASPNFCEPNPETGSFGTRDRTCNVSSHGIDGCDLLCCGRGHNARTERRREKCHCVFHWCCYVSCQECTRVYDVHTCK

[10] = NIH-3T3 fibroblast cytotoxicity, dose response, cytotoxicity control, cell-based, fluorescence, Alamar Blue, secondary assay (AID 2327); format: functional;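 note: NIH-3T3 mouse fibroblasts cultured with fluconazole at 8 µg/mL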
[11] = target: T6, Voltage-gated N-type calcium channel alpha-1B subunit/Amyloid beta A4 precursor protein-binding family A member 1 (Homo sapiens, UniProt Q00975+Q02410); format: protein assay
T6 sequence (Q00975 whole entry): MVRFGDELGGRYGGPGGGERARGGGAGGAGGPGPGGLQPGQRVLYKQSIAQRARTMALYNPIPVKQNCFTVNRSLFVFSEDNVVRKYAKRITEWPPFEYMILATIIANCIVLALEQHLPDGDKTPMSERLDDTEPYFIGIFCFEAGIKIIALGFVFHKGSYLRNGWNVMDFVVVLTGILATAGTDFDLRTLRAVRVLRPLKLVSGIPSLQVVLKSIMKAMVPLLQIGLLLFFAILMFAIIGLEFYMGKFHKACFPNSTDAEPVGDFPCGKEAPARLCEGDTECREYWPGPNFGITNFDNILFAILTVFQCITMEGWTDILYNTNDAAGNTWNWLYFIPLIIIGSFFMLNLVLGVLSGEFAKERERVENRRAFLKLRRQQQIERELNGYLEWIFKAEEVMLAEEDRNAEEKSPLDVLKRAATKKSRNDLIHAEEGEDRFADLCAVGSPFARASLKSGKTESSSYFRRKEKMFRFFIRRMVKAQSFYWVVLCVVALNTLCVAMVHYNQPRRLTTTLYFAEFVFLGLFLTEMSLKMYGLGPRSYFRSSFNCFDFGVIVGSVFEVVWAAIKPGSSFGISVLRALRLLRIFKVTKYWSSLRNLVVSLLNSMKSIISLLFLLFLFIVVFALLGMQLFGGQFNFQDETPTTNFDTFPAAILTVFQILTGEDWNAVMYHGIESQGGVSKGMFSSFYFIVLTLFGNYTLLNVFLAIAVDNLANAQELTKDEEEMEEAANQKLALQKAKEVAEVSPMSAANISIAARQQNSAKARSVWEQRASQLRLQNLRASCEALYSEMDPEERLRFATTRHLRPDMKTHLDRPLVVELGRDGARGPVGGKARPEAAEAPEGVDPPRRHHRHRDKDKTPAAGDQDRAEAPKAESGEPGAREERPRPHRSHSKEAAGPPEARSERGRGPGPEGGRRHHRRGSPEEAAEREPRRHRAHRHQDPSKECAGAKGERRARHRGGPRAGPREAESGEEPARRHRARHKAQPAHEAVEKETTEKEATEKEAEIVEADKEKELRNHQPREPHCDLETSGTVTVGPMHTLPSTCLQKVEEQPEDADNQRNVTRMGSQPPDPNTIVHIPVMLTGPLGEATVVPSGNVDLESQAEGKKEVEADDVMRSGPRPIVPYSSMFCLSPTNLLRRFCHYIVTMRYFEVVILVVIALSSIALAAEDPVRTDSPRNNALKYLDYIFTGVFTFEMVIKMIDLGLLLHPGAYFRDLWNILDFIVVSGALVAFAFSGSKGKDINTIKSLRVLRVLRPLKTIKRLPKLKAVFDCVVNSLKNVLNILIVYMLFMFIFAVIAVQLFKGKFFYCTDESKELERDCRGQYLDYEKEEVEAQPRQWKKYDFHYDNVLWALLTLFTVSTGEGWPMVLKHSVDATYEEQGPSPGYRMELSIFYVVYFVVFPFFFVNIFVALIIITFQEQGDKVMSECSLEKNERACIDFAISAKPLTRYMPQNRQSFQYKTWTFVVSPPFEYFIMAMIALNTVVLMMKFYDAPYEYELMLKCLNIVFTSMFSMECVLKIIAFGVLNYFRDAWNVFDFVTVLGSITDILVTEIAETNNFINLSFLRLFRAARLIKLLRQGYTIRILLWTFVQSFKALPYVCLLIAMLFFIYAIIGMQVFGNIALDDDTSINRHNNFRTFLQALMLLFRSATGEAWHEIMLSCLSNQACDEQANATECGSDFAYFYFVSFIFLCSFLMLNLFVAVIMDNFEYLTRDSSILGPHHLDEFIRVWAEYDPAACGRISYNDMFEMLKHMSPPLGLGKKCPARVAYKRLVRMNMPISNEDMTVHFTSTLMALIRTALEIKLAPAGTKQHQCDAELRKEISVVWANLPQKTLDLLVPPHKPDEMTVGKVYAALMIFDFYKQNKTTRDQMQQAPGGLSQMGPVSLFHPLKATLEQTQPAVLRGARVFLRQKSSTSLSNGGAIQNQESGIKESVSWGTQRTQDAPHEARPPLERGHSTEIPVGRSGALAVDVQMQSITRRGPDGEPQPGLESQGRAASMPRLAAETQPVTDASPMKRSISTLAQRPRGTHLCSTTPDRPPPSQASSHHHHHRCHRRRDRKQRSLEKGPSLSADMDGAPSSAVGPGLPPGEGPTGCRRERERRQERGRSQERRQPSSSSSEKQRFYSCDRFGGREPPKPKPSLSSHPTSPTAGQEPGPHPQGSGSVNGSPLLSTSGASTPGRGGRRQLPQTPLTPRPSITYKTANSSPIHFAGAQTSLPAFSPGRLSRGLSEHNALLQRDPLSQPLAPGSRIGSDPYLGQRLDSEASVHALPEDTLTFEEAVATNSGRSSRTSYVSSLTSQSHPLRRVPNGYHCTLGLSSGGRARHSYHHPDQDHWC
T6 sequence (Q02410 whole entry): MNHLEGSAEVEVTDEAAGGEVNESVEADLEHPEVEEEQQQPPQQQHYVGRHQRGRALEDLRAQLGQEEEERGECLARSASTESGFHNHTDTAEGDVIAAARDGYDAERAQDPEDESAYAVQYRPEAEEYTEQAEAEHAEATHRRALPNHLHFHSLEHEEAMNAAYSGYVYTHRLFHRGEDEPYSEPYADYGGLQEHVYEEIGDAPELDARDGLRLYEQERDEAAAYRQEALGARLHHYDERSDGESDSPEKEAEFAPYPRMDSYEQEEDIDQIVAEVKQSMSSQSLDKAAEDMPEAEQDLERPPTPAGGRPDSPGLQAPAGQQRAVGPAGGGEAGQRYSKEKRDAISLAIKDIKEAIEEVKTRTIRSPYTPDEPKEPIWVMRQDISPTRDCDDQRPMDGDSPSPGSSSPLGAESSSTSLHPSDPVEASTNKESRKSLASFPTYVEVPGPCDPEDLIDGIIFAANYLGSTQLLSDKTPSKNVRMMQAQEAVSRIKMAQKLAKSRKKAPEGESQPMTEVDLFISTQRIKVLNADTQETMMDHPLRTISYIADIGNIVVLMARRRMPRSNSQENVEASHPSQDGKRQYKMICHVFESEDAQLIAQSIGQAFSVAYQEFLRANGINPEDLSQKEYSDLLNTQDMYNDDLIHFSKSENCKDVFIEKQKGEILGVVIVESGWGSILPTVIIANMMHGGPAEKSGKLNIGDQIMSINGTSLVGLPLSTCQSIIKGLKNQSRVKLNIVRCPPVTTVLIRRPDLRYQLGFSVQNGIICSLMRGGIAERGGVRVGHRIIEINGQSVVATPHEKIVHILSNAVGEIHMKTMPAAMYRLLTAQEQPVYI

[12] = target: Mitogen-activated protein kinase 10 (Homo sapiens, UniProt P53779); assay: Dose response biochemical screening assay for inhibitors of c-Jun N-Terminal Kinase 3 (JNK3). [Related pubchem assays: 746 ]
Sequence of Mitogen-activated protein kinase 10 (P53779 whole entry): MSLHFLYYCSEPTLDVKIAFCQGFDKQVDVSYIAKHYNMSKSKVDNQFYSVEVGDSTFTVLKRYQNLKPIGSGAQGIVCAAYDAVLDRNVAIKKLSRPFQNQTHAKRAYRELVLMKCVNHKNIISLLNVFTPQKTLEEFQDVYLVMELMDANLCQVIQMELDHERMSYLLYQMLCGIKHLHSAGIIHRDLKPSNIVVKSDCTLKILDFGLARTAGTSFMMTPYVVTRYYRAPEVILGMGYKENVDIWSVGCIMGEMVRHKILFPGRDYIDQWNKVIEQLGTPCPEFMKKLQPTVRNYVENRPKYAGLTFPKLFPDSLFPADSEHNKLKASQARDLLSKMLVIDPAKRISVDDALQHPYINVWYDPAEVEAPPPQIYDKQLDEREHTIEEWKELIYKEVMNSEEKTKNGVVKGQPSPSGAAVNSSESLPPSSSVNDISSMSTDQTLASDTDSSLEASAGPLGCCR

[13] = target: T6, Voltage-gated N-type calcium channel alpha-1B subunit/Amyloid beta A4 precursor protein-binding family A member 1; format: protein assay; remark: listed apart in the source
Bcl-2-related protein A1 [14] = target: T7, Bcl-2-related protein A1 (Mus musculus, UniProt Q07440); assay: Bfl-1 inhibitors, primary screen, biochemical, fluorescence polarization, FITC-Bid, mouse (AID 432)
T7 sequence (Q07440 whole entry): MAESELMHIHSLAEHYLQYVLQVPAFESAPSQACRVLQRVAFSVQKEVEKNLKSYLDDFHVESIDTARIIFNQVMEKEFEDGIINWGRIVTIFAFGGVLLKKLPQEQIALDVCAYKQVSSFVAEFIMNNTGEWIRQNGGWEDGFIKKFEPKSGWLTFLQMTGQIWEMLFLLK

[15] = target: Dual specificity protein phosphatase 6 (Rattus norvegicus, UniProt Q64346); assay: MKP-3 phosphatase inhibitors, primary screen, biochemical, rat enzyme, in vitro (AID 425)
Beta-lactamase [16] = target: Beta-lactamase (Pseudomonas aeruginosa, UniProt Q79MP6);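 note: biochemical dose-response test of metallo-beta-lactamase enzyme inhibition, read out by epi-absorbance; purified recombinant IMP-1 metallo-beta-lactamase with nitrocefin as substrate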
Bcl-2-related protein A1 [17] = target: T7, Bcl-2-related protein A1; assay: Bfl-1 inhibitors blocking BH3 peptide binding, confirmation, biochemical, TR-FRET, mouse Bfl-1 (AID 621);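 note: TR-FRET binding of GST-Bfl-1 to FITC-labelled Bid peptide via terbium antibody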
Beta-lactamase [18] = target: Beta-lactamase (Salmonella choleraesuis (strain SC-B67), UniProt Q5J463)
Sequence of Beta-lactamase (Salmonella choleraesuis (strain SC-B67), UniProt Q5J463) (Q5J463 whole entry): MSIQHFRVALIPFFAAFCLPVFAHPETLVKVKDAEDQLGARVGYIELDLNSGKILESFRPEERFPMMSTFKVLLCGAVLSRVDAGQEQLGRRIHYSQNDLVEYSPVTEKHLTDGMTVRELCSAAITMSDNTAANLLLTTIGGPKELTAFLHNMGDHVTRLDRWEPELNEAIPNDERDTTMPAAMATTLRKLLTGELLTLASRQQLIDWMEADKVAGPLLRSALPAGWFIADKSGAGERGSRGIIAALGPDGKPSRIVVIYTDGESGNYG

Sequence of Serine/threonine-protein phosphatase PP1-alpha catalytic subunit (P62136 whole entry): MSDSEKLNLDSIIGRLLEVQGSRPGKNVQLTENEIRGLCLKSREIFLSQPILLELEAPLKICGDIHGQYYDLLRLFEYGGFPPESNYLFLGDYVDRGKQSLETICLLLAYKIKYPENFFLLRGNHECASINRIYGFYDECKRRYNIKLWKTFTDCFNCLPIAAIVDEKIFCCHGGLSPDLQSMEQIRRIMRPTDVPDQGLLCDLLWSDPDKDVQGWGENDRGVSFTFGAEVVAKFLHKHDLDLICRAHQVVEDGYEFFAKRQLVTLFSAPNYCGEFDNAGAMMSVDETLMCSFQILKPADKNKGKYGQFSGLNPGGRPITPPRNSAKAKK

O=C(/C=C/c1ccc(O)cc1)c1ccc(/N=C2\C(=O)c3ccccc3C(O)=C2N2CCCCC2)cc1
IC50 [1]: > 67 µM (not active) | AC50 [2]: > 380 µM (inactive) | IC50 [3]: 2.91 µM (active) | IC50 [4]: > 128 µM (inactive) | CC50 [5]: 8.74 µM (active) | EC50 (Protein RecA): 0.707 µM (active) | IC50 [6]: 26.4 µM (not active)

c1ccc2c(c1)OCC(CNc1ncnc3sccc13)O2 (configuration not stated)
IC50 (Galanin receptor type 2): > 42 µM (not active) | EC50 [7]: > 180 µM (inactive) | EC50 [8]: > 150 µM (inactive) | AC50 (INS1): 0.941 µM (active) | EC50 [9]: 0.27 µM (active) | IC50 (Protein Wnt-3a): 1.83 µM (active) | EC50 [10]: > 150 µM (inactive)

O=C1c2ccccc2-c2onc3ccc(NCCCn4ccnc4)c1c23
IC50 [11]: 3.18 µM (active) | IC50 [12]: 22.2 µM (not active) | IC50 [13]: > 50 µM (inactive) | IC50 (Bcl-2-related protein A1 [14]): > 100 µM (not active) | IC50 [15]: 1.19 µM (active) | IC50 (Beta-lactamase [16]): 5.38 µM (active) | IC50 (Bcl-2-related protein A1 [17]): > 100 µM (not active) | IC50 (Beta-lactamase [18]): 3.02 µM (active)
